Measured values: ChEMBL document CHEMBL1142755, “A macromolecular prodrug of doxorubicin conjugated to a biodegradable cyclotriphosphazene bearing a tetrapeptide” (2005)
Structures can show the parent of a compound that is named as a salt.

Test system: L1210
Test: In vitro cytotoxicity against Leukemia L1210 cell line
Assay type: functional
Settings: Mus musculus

Compound	EC50 (read-out: ED50 (the source's name))	ED50
COc1cccc2c1C(=O)c1c(O)c3c(c(O)c1C2=O)C[C@@](O)(C(=O)CO)C[C@@H]3O[C@H]1C[C@H](N)[C@H](O)[C@H](C)O1 [DOXORUBICIN HYDROCHLORIDE]	100 nM	–
CISPLATIN	–	1000 nM
